Assays:
[1] = Inhibition of GGTase1
[2] = Selectivity ratio of IC50 for farnesyltransferase to IC50 for GGTase1

Which results are given for `CSCCc1c(-c2cccnc2)nn(-c2ccc(Cl)c(Cl)c2)c1OCCCC(=O)N[C@@H](Cc1ccccc1)C(N)=O`?
IC50 [1]: 8 nM; Ratio IC50 [2]: 250

— ChEMBL document CHEMBL1221190, “Therapeutic intervention based on protein prenylation and associated modifications” (Nat Chem Biol, 2006)
